Article PMC12888861, “Antibacterial activity of enmetazobactam against Acinetobacter spp.: a molecular dissection of mechanism of action and resistance determinants” (Antimicrobial Agents and Chemotherapy, 2025)
In brackets after ≈: the same amount, converted by molar mass.

What was measured:
[1] = tested on: carbapenem-susceptible A. baumannii isolates (n = 54); experiment: MIC, broth microdilution (EUCAST), carbapenem-susceptible A. baumannii isolates; assay type: cell-based, Acinetobacter baumannii
Description: The bacterial strains used in this study comprised 208 clinical isolates from the Spanish National Acinetobacter spp. 2020 Multicenter Collection, which was previously characterized in detail by our research group, including whole-genome sequencing, phylogenetics studies, clonal dynamics, and resistance mechanisms ([2], [29]). Additionally, a collection of A. baumannii ATCC 17978 transformants coding the blaOXA-23, blaOXA-24/40, blaOXA-51, blaOXA-58, blaOXA-143, and blaOXA-201 genes, previously constructed and described by our group ([30]), was used to determine the activity of enmetazobactam against strains carrying the main CHDLs of A. baumannii.
The antimicrobial susceptibility of the 208 Acinetobacter spp. isolates was assessed using the broth microdilution method, as described in the European Committee on Antimicrobial Susceptibility Testing (EUCAST) v.15 guidelines (http://www.eucast.org/clinical_breakpoints). […] MICs for enmetazobactam alone were assessed as well. […] Subsequently, MIC testing was also conducted with a collection of A. baumannii ATCC 17978 transformants expressing clinically relevant OXA-like carbapenemase genes.
The A. baumannii ATCC 19606 strain was used as the reference strain in all susceptibility experiments, in duplicate assays. Antibiotics were purchased from Sigma-Aldrich, except enmetazobactam and durlobactam, which were obtained from Advanz Pharma and MedChemExpress, respectively.

[2] = tested on: A. baumannii ATCC 19606 cells; experiment: Cell morphology assay, bright-field microscopy; assay type: cell-based, Acinetobacter baumannii
Description: In order to confirm the involvement of PBPs as targets of enmetazobactam, cell morphology assays involving exposure to enmetazobactam and sulbactam were performed following the methodology described in Supplementary materials and methods.
To confirm the involvement of PBPs as targets of enmetazobactam, the cellular morphology of A. baumannii ATCC 19606 reference strain was analyzed after exposure to the compound at different concentrations. Bright-field microscopy was used to monitor the cell morphology. […] For microscopic visualization, aliquots of each sample were obtained, stained with crystal violet solution and observed using an Olympus BX61 microscope (Olympus).
Changes in cell morphology were determined on the basis of alterations in septal integrity, abnormal elongation, spheroplast formation and filamentation, patterns previously associated with the selective inhibition of PBP1, PBP2 and PBP3 in Gram-negative bacilli. Specifically, PBP1 inhibition has been linked to cell lysis, PBP2 inhibition has been linked to spherification, and PBP3 inhibition to defective cell division and filament formation (1, 2). The results were qualitatively compared across different treatments to infer the potential selectivity of enmetazobactam for specific PBPs.

[3] = Acinetobacter baumannii, carbapenem-susceptible A. baumannii isolates (n = 54), ETZ fixed 8 mg/L in combinations

Q: What does the source list for `C[n+]1ccn(C[C@@]2(C)[C@H](C(=O)[O-])N3C(=O)C[C@H]3S2(=O)=O)n1` [enmetazobactam]?
A: MIC distribution 0.12 [1]: 0; MIC ([1]; Acinetobacter baumannii, MBC set, isolate Ab1, A. baumannii ST 164, ADC-6, OXA-91, non-CHDLs-producing): 2 µg/mL (≈ 6.36 µM); MIC ([1]; Acinetobacter baumannii, MBC set, isolate Ab11, A. baumannii ST 239, ADC-2, OXA-51, non-CHDLs-producing): 2 µg/mL (≈ 6.36 µM); MIC ([1]; Acinetobacter baumannii, MBC set, isolate Ab34, A. baumannii ST 2182, ADC-2, OXA-130, non-CHDLs-producing): 4 µg/mL (≈ 12.7 µM); MIC ([1]; Acinetobacter baumannii, isolate Ab1, ST 164, ADC-6, OXA-91, in combinations ETZ fixed at 8 mg/L): 4 µg/mL; MIC ([1]; Acinetobacter baumannii, isolate Ab11, ST 239, ADC-2, OXA-51, in combinations ETZ fixed at 8 mg/L): 4 µg/mL; MIC ([1]; Acinetobacter baumannii, isolate Ab34, ST 2182, ADC-2, OXA-130, in combinations ETZ fixed at 8 mg/L): 4 µg/mL; MIC ([1]; Acinetobacter baumannii, isolate Ab38, ST 866, ADC-2, OXA-385, in combinations ETZ fixed at 8 mg/L): 4 µg/mL; MIC ([1]; Acinetobacter baumannii, isolate Ab40, ST 2176, ADC-2, OXA-64, in combinations ETZ fixed at 8 mg/L): 4 µg/mL; MIC ([1]; Acinetobacter baumannii, isolate Ab50, ST 2176, ADC-2, OXA-64, in combinations ETZ fixed at 8 mg/L): 4 µg/mL; MIC ([1]; Acinetobacter baumannii, isolate Ab57, ST 1470, ADC-58, OXA-106, in combinations ETZ fixed at 8 mg/L): 2 µg/mL; MIC ([1]; Acinetobacter baumannii, isolate Ab58, ST 6, ADC-2, OXA-94, in combinations ETZ fixed at 8 mg/L): 4 µg/mL; MIC ([1]; Acinetobacter baumannii, isolate Ab61, ST 1639, ADC-7, OXA-64, in combinations ETZ fixed at 8 mg/L): 4 µg/mL; MIC ([1]; Acinetobacter baumannii, isolate Ab62, ST 265, ADC-2, OXA-91, in combinations ETZ fixed at 8 mg/L): 4 µg/mL; MIC ([1]; Acinetobacter baumannii, isolate Ab67, ST 1, ADC-11, OXA-69, in combinations ETZ fixed at 8 mg/L): 4 µg/mL; MIC ([1]; Acinetobacter baumannii, isolate Ab79, ST 106, ADC-11, OXA-78, in combinations ETZ fixed at 8 mg/L): 4 µg/mL; MIC ([1]; Acinetobacter baumannii, isolate Ab80, ST 2182, ADC-6, OXA-208, in combinations ETZ fixed at 8 mg/L): 4 µg/mL; MIC ([1]; Acinetobacter baumannii, isolate Ab81, ST 25, ADC-79, OXA-64, in combinations ETZ fixed at 8 mg/L): 4 µg/mL; MIC ([1]; Acinetobacter baumannii, isolate Ab93, ST 25, ADC-79, OXA-64, in combinations ETZ fixed at 8 mg/L): 4 µg/mL; MIC ([1]; Acinetobacter baumannii, isolate Ab95, ST 582, ADC-5, OXA-317, in combinations ETZ fixed at 8 mg/L): 2 µg/mL; MIC ([1]; Acinetobacter baumannii, isolate Ab96, ST 582, ADC-5, OXA-317, in combinations ETZ fixed at 8 mg/L): 2 µg/mL; MIC ([1]; Acinetobacter baumannii, isolate Ab100, ST 145, ADC-58, OXA-343, in combinations ETZ fixed at 8 mg/L): 2 µg/mL; MIC ([1]; Acinetobacter baumannii, isolate Ab110, ST 1623, ADC-3, OXA-70, in combinations ETZ fixed at 8 mg/L): 4 µg/mL; MIC ([1]; Acinetobacter baumannii, isolate Ab112, ST 193, ADC-like, OXA-120, in combinations ETZ fixed at 8 mg/L): 2 µg/mL; MIC ([1]; Acinetobacter baumannii, isolate Ab124, ST 2176, ADC-2, OXA-64, in combinations ETZ fixed at 8 mg/L): 2 µg/mL; MIC ([1]; Acinetobacter baumannii, isolate Ab127, ST 2176, ADC-2, OXA-64, in combinations ETZ fixed at 8 mg/L): 4 µg/mL; MIC ([1]; Acinetobacter baumannii, isolate Ab128, ST 2176, ADC-2, OXA-64, in combinations ETZ fixed at 8 mg/L): 2 µg/mL; MIC ([1]; Acinetobacter baumannii, isolate Ab130, ST 32, ADC-79, OXA-100, in combinations ETZ fixed at 8 mg/L): 2 µg/mL; MIC ([1]; Acinetobacter baumannii, isolate Ab131, ST 687, ADC-like, OXA-208, in combinations ETZ fixed at 8 mg/L): 2 µg/mL; MIC ([1]; Acinetobacter baumannii, isolate Ab132, ST 1112, ADC-79, OXA-89, in combinations ETZ fixed at 8 mg/L): 2 µg/mL; MIC ([1]; Acinetobacter baumannii, isolate Ab136, ST 2183, ADC-like, OXA-66, in combinations ETZ fixed at 8 mg/L): 4 µg/mL; MIC ([1]; Acinetobacter baumannii, isolate Ab139, ST 54, ADC-like, OXA-365, in combinations ETZ fixed at 8 mg/L): 4 µg/mL; MIC ([1]; Acinetobacter baumannii, isolate Ab142, ST 1, ADC-like, OXA-69, in combinations ETZ fixed at 8 mg/L): 8 µg/mL; MIC ([1]; Acinetobacter baumannii, isolate Ab143, ST 1328, ADC-76, OXA-408, in combinations ETZ fixed at 8 mg/L): 4 µg/mL; MIC ([1]; Acinetobacter baumannii, isolate Ab149, ST 1112, ADC-6, OXA-407, in combinations ETZ fixed at 8 mg/L): 8 µg/mL; MIC ([1]; Acinetobacter baumannii, isolate Ab150, ST 2184, ADC-like, OXA-64, in combinations ETZ fixed at 8 mg/L): 4 µg/mL; MIC ([1]; Acinetobacter baumannii, isolate Ab152, ST 132, ADC-2, OXA-120, in combinations ETZ fixed at 8 mg/L): 4 µg/mL; MIC ([1]; Acinetobacter baumannii, isolate Ab158, ST 2034, ADC-2, OXA-217, in combinations ETZ fixed at 8 mg/L): 2 µg/mL; MIC ([1]; Acinetobacter baumannii, isolate Ab163, ST 132, ADC-2, OXA-120, in combinations ETZ fixed at 8 mg/L): 2 µg/mL; MIC ([1]; Acinetobacter baumannii, isolate Ab167, ST 1623, ADC-like, OXA-345, in combinations ETZ fixed at 8 mg/L): 2 µg/mL; MIC ([1]; Acinetobacter baumannii, isolate Ab168, ST 1470, ADC-75, OXA-402, in combinations ETZ fixed at 8 mg/L): 2 µg/mL; MIC ([1]; Acinetobacter baumannii, isolate Ab170, ST 2110, ADC-4, OXA-338, in combinations ETZ fixed at 8 mg/L): 4 µg/mL; MIC ([1]; Acinetobacter baumannii, isolate Ab172, ST 2185, ADC-5, OXA-217, in combinations ETZ fixed at 8 mg/L): 2 µg/mL; MIC ([1]; Acinetobacter baumannii, isolate Ab185, ST 2, ADC-26, OXA-66, in combinations ETZ fixed at 8 mg/L): 4 µg/mL; MIC ([1]; Acinetobacter baumannii, isolate Ab187, ST 105, ADC-2, OXA-430, in combinations ETZ fixed at 8 mg/L): 2 µg/mL; MIC ([1]; Acinetobacter baumannii, isolate Ab188, ST 203, ADC-6, OXA-217, PDC-1, in combinations ETZ fixed at 8 mg/L): 4 µg/mL; MIC ([1]; Acinetobacter baumannii, isolate Ab189, ST 1405, ADC-3, OXA-120, in combinations ETZ fixed at 8 mg/L): 2 µg/mL; MIC ([1]; Acinetobacter baumannii, isolate Ab190, ST 2186, ADC-6, OXA-413, in combinations ETZ fixed at 8 mg/L): 2 µg/mL; MIC ([1]; Acinetobacter baumannii, isolate Ab193, ST 164, ADC-6, OXA-91, in combinations ETZ fixed at 8 mg/L): 2 µg/mL; MIC ([1]; Acinetobacter baumannii, isolate Ab195, ST 1, ADC-11, OXA-69, in combinations ETZ fixed at 8 mg/L): 2 µg/mL; MIC ([1]; Acinetobacter baumannii, isolate Ab200, ST 1336, ADC-2, OXA-51, in combinations ETZ fixed at 8 mg/L): 2 µg/mL; MIC ([1]; Acinetobacter baumannii, isolate Ab202, ST 1, ADC-11, OXA-69, in combinations ETZ fixed at 8 mg/L): 2 µg/mL; MIC ([1]; Acinetobacter baumannii, isolate Ab203, ST 221, ADC-6, OXA-88, in combinations ETZ fixed at 8 mg/L): 2 µg/mL; MIC ([1]; Acinetobacter baumannii, isolate Ab206, ST 2187, ADC-58, OXA-69, in combinations ETZ fixed at 8 mg/L): 2 µg/mL; MIC ([1]; Acinetobacter baumannii, isolate Ab209, in combinations ETZ fixed at 8 mg/L): 1 µg/mL; MIC ([1]; Acinetobacter baumannii, isolate Ab213, in combinations ETZ fixed at 8 mg/L): 2 µg/mL; MIC ([1]; Acinetobacter baumannii, isolate Ab218, in combinations ETZ fixed at 8 mg/L): 2 µg/mL; MIC ([1]; Acinetobacter baumannii, isolate Ab220, in combinations ETZ fixed at 8 mg/L): 1 µg/mL; MIC50 [1, 3]: 2 µg/mL; MIC90 [1, 3]: 4 µg/mL; MIC distribution 0.25 ([1]; cumulative share of carbapenem-susceptible A. baumannii isolates (n = 54) at MIC 0.25 mg/L, ETZ fixed 8 mg/L in combinations): 0; MIC distribution 0.5 ([1]; cumulative share of carbapenem-susceptible A. baumannii isolates (n = 54) at MIC 0.5 mg/L, ETZ fixed 8 mg/L in combinations): 0; MIC distribution 1 ([1]; cumulative share of carbapenem-susceptible A. baumannii isolates (n = 54) at MIC 1 mg/L, ETZ fixed 8 mg/L in combinations): 3.7; MIC distribution 2 ([1]; cumulative share of carbapenem-susceptible A. baumannii isolates (n = 54) at MIC 2 mg/L, ETZ fixed 8 mg/L in combinations): 51.9; MIC distribution 4 ([1]; cumulative share of carbapenem-susceptible A. baumannii isolates (n = 54) at MIC 4 mg/L, ETZ fixed 8 mg/L in combinations): 96.3; MIC distribution 8 ([1]; cumulative share of carbapenem-susceptible A. baumannii isolates (n = 54) at MIC 8 mg/L, ETZ fixed 8 mg/L in combinations): 100; MIC distribution 16 ([1]; cumulative share of carbapenem-susceptible A. baumannii isolates (n = 54) at MIC 16 mg/L, ETZ fixed 8 mg/L in combinations): 100; MIC distribution ≤0.06 ([1]; cumulative share of carbapenem-susceptible A. baumannii isolates (n = 54) at MIC ≤0.06 mg/L, ETZ fixed 8 mg/L in combinations): 0; MIC distribution ≥32 ([1]; cumulative share of carbapenem-susceptible A. baumannii isolates (n = 54) at MIC ≥32 mg/L, ETZ fixed 8 mg/L in combinations): 100; cell morphology ([2]; A. baumannii ATCC 19606, overnight exposure at 1× MIC): elongated filaments; cell morphology ([2]; A. baumannii ATCC 19606, overnight exposure at 2× MIC): the filaments shortened in length
